Test results from US20230134986A1, “GLUCOSE TRIPTOLIDE CONJUGATES AND USES THEREOF” (The Johns Hopkins University, priority 2020, published 2023).
Where two headings read alike, the source gives them in different places.

Experiments:
HEK 293T cells = assay: HEK293T cell proliferation assay ([3H]-thymidine incorporation); assay type: cell-based, human; conditions: Homo sapiens; anti-proliferative activity, HEK 293T cells, 24 h drug exposure; read-out: IC50 ± SEM
From the text: Cells and culture conditions. Primary astrocytes (Lonza, Walkersville, Md.; ABM™ Basal Media with AGM™ SingleQuots™ Supplement Pack), fibroblast (ATCC; Fibroblast Basal Medium (ATCC© PCS-201-030™) with Fibroblast Growth Kit-Serum-free (ATCC© PCS-201-040™)), airway epithelial cell (ATCC; Airway Epithelial Cell Basal Medium (ATCC© PCS-300-030™) with Bronchial Epithelial Cell Growth Kit (ATCC© PCS-300-040™)), renal proximal tubule (ATCC; Renal Epithelial Cell Basal Medium (ATCC© PCS-400-030™) with Renal Epithelial Cell Growth Kit (ATCC© PCS-400-040™)), prostate epithelial cell (Lonza; PrEGM™ BulletKit™) and mammary epithelial cell (Lonza; MEBM™ BulletKit™) were kept in a humidified incubator at 37° C. adjusted to 5% CO2. Prostate (PC3, LNCaP, DU-145), breast (MDA-MB-231, MDA-MB-453, SK-BR-3), head and neck (A253, Detroit 562, SCC-25), melanoma (SK-Mel-3, SK-Mel-1, RPMI-7951), pancreatic (CfPAC-1, BxPC3, SW1990), lung (A549, NCI-H1299, NCI-H1437) and liver (SNU-475, SK-HEP-1, SNU-387) cancer cell lines were obtained from ATCC and cultured in their respective media (prostate cells: RPMI-1640, MDA-MB-231: RPMI-1640, MDA-MB-453: Leibovitz's L-15, SK-BR-3: McCoy's 5a, A253: McCoy's 5a, Detroit 562: EMEM, SCC-25: DMEM, SK-Mel-3: McCoy's 5a, SK-Mel-1: EMEM, RPMI-7951: EMEM), CfPAC-1: IMDM, BxPC3: RPMI-1640, SW1990: Leibovitz's L-15), A549: F-12K, NCI-H1299: RPMI-1640, NCI-H1437: RPMI-1640, SNU-475: RPMI-1640, SK-HEP-1: EMEM, SNU-387: RPMI-1640. All media were supplemented with 10% (vol/vol) filtered fetal bovine serum (FBS, Invitrogen, Carlsbad, Calif.), 1% penicillin/streptomycin (Invitrogen) and maintained in a humidified incubator at 37° C. with 5% CO2 except for MDA-MB-453 and SW1990 grown at 37° C. without CO2 control. Wild type (ATCC) and C342T XPB knock-in cells (named T7115) of Human Embryonic Kidney 293T (HEK293T), HeLa (ATCC) were cultured in DMEM (GIBCO) with 10% (vol/vol) filtered fetal bovine serum (FBS, Invitrogen, Carlsbad, Calif.), 1% penicillin/streptomycin (Invitrogen).
(§1) Proliferation and viability assays. [^3H]-thymidine incorporation. HEK293T cells (10,000 cells/well) were seeded into 96-well plates then cultured in DMEM plus 10% FBS and 1% penicillin/streptomycin at 37° C. with 5% CO2 overnight. Drugs were added at indicated concentrations and incubation was continued for an additional 24 h. For hypoxia, PC3 (5,000 cells/well) were exposed to 1% O2 (Airgas) in a humidified hypoxia chamber (Billups-Rothenberg) in 37° C. for 48 h prior to drug exposure for 48 h. Treated cells were then pulsed using an aliquot of 1 μCi of [^3H]-thymidine (Perkin Elmer) per well for an additional 6 h. Radiolabelled cells were harvested onto a printed Filtermat A glass fiber filter (Perkin Elmer) using a Tomtec Harvester 96 Mach III M. Betaplate Scint (Perkin Elmer) scintillation fluid was added to radiolabelled filters followed by scintillation counting on Microbeta2 LumiJET Microplate Counter (Perkin Elmer).

[1] = lethal case dosed with 18 mg/m2 F60008; cited from earlier work
Rpb1 in 293T WT cells = assay: RPB1 degradation in 293T WT cells, western blot; assay type: cell-based, human; conditions: 0.1 mM triptolide (so in the source); 0.1 μM)
From the text: (§2) Cells and culture conditions. Primary astrocytes (Lonza, Walkersville, Md.; ABM™ Basal Media with AGM™ SingleQuots™ Supplement Pack), fibroblast (ATCC; Fibroblast Basal Medium (ATCC© PCS-201-030™) with Fibroblast Growth Kit-Serum-free (ATCC© PCS-201-040™)), airway epithelial cell (ATCC; Airway Epithelial Cell Basal Medium (ATCC© PCS-300-030™) with Bronchial Epithelial Cell Growth Kit (ATCC© PCS-300-040™)), renal proximal tubule (ATCC; Renal Epithelial Cell Basal Medium (ATCC© PCS-400-030™) with Renal Epithelial Cell Growth Kit (ATCC© PCS-400-040™)), prostate epithelial cell (Lonza; PrEGM™ BulletKit™) and mammary epithelial cell (Lonza; MEBM™ BulletKit™) were kept in a humidified incubator at 37° C. adjusted to 5% CO2. […]
(§3) Western blot analysis. […] Antibody-protein complexes were detected using enhanced chemiluminescence (ECL) immunoblotting detection reagent (EMD Millipore).

PC3 cells = assay: PC3 proliferation under hypoxia or normoxia ([3H]-thymidine incorporation); assay type: cell-based, human; conditions: for IC50: Homo sapiens, PC-3, 48 h, 48 h post treatment, read-out: IC50
Procedure: as §1

MDA MB231 cells = assay: MDA MB231 proliferation under hypoxia ([3H]-thymidine incorporation); assay type: cell-based, human; conditions: MDA MB231, 1% O2, 48 h post treatment
[2] = tested on: RPB1 in C342T XPB mutant cell line; assay: RPB1 degradation in C342T XPB knock-in cells, western blot; assay type: cell-based, human; conditions: XPB C342T cells, 0.1 mM triptolide (so in the source); 0.1 μM)
From the text: as §2, §3

MCF-7 = MCF-7 proliferation under hypoxia ([3H]-thymidine incorporation); assay type: cell-based, human; conditions: MCF-7, 1% O2, 48 h post treatment
HepG2 = HepG2 proliferation under hypoxia ([3H]-thymidine incorporation); assay type: cell-based, human; conditions: HepG2, 1% O2, 48 h post treatment
[3] = tested on: T7115 (C342T XPB knock-in HEK293T cells); assay: Proliferation of XPB C342T knock-in cell line T7115 ([3H]-thymidine incorporation); assay type: cell-based, human; conditions: C342T XPB knock-in versus isogenic WT 293T
From the text: as §2

TFIIH = target: T1, TFIIH (Homo sapiens, UniProt P19447); assay: DNA-dependent ATPase activity assay of TFIIH; assay type: biochemical; conditions: 200 nM triptolide
T1 construct: made in house
Procedure: ATPase activity assay. The TFIIH complex was purified and its DNA-dependent ATPase assay was performed as previously described (Titov et al. (2011) Nat. Chem. Biol. 7:182-88). Briefly, a 10-μl reaction mixture contained 20 mM Tris (pH 7.9), 4 mM MgCl2, 1 μM of ATP, 0.1 μCi [^γ-^32P]ATP (3000 Ci/mmol), 100 μg/ml BSA, 100 nM RNA Polymerase II promoter positive control DNA, 1 nM TFIIH and indicated concentrations of triptolide or its analogs. The reactions were started by either addition of TFIIH for 2 hr and stopped by addition of 2 μl of 0.5 M EDTA. An aliquot of 1 μl reaction mixture was spotted on PEI-cellulose (sigma) and the chromatogram was developed with 0.5 M LiCi and 1 M HCOOH. The percent of ATP hydrolysis was quantified using a Typhoon FLA 9500 Variable Imager (GE Healthcare).

HeLa = HeLa proliferation under hypoxia ([3H]-thymidine incorporation); assay type: cell-based, human; conditions: 1% O2, 48 h post treatment

SMILES: CC(C)[C@]12O[C@H]1[C@@H]1O[C@]13[C@]1(O[C@H]1C[C@H]1C4=C(CC[C@@]13C)C(=O)OC4)[C@@H]2O [TPL, (1S,2S,4S,5S,7R,8R,9S,11S,13 S)-8-hydroxy-1-methyl-7-propan-2-yl-3,6,10,16 tetraoxaheptacyclo[11.7.0.02,4.02,9.05,7.09,11.014,18] icos-14(18)-en-17-one, reference compound]
- IC50 (HEK 293T cells): 5.6 nM
- Maximum serum levels [1]: 58.5 ng/mL
- Maximum serum levels (molar) [1]: ~0.16 mM
- degradation of Rpb1 (Rpb1 in 293T WT cells): leads to the degradation of the Rpb1 subunit
- IC50 (PC3 cells; PC3, hypoxic conditions (1% O2)): 1.5 nM
- IC50 (PC3 cells; PC3, normoxic conditions (20% O2)): 4.5 nM
- fold enhancement of anti-proliferative effect during hypoxia (PC3 cells; PC3, hypoxia versus normoxia): three-fold
- effect of hypoxia on anti-proliferative effect (MDA MB231 cells): modest anti-proliferative effect
- Rpb1 level [2]: Rpb1 levels resemble DMSO control
- effect of hypoxia on anti-proliferative effect (MCF-7): modest anti-proliferative effect
- effect of hypoxia on anti-proliferative effect (HepG2): showed resistance upon hypoxia
- sensitivity of T7115 mutant line (proliferation) [3]: resistant
- inhibition of ATPase activity of TFIIH (TFIIH): effectively suppresses activity
- inhibition of ATPase activity of TFIIH (TFIIH; listed as triptolide): nearly completely inhibited
- effect of hypoxia on anti-proliferative effect (HeLa): modest anti-proliferative effect
